Test [1] relates to FLJXXXXX-derived proteins. The test is described as follows: SEC/MS spin column interaction analysis of FLJXXXXX-derived proteins and various compounds (Tables 30-1 to 30-4). Format: binding, human.
Another test has as its target T1, FLJ41991-derived protein (Homo sapiens, UniProt P57764, E293G).
T1 construct: His-tag (N); made in house; host or cells: Escherichia coli BL21star(DE3)pLysS (pDEST17)
T1 sequence (P57764 265-484 E293G): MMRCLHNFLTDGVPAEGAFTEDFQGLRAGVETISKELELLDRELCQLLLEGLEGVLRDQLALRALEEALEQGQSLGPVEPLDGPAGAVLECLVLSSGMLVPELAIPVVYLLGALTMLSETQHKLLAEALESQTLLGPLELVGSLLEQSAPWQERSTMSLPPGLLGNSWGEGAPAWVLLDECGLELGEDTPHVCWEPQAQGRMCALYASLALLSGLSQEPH
Nature of the test: SEC/MS interaction analysis, FLJ41991-derived protein (GSDMDC1). Format: binding. The source says:
(§1) To analyze the interactions between commonly used drugs and proteins expressed from human full-length cDNA clones while keeping both the proteins and the compounds in non-modified, non-immobilized state, size exclusion chromatography (SEC) and mass analysis were used in combination. The specific procedures are shown below.
(§2) The compound-protein mixture prepared in step 1 was subjected to chromatography using an SEC column, the compound and the protein were separated by SEC, and the compound that interacted with the bound compound or protein contained in the protein fraction was analyzed using a mass analyzer.
(§3) Protein concentrations were measured using BCA Protein Assay (PIERCE), in consideration of the purity calculated by SDS-PAGE.
(§4) Mass analysis was performed using LCQ DECA XP (Thermoelectron) or Q-TOF micro (Micromass), equipped with an ESI probe. The LC pump used was Agilent 1100 (Yokogawa Analytical Systems), and the autosampler used was HTC-PAL (CTC Analytics) equipped with a cooling stacker. The SEC column used was a micro-LC column or a 384-well spin column. […]
(§5) In the 384-well spin column method, Unifilter 100 (Whatman), packed with 10 μL (dry volume) of Bio-Gel P6 (BIO-RAD) and swollen with milliQ water, was used as the SEC column. […] The SEC spin column was mounted on an acetonitrile-aliquoted 384-well U-bottom plate and centrifuged; the SEC spin column filtrate, which is a protein fraction, was recovered in 50% acetonitrile. The protein precipitate produced by the acetonitrile was removed via centrifugation and filtration for deproteinization; the resulting filtrate was concentrated by centrifugal concentration and re-dissolved in 10 μL of 50% methanol to obtain a mass analysis sample. The mobile phase supplied to the mass analyzer was 0.1% formic acid/50% methanol solution in the positive ion mode, and 0.1% ammonia/50% methanol solution in the negative ion mode; these mobile phases were used at a flow rate of 40 μL/min. 2-μL of mass analysis samples were injected using an autosampler at 2-minute intervals; the mass spectral intensity of the compound was measured to retrieve the spectral intensity of the pharmaceutical compound contained in the SEC spin column filtrate (protein fraction eluted from SEC).

For a further test, the target named is T2, FLJ38531-derived protein (Homo sapiens, UniProt Q9BVM4).
T2 construct: His-tag (N); made in house; host or cells: Escherichia coli BL21star(DE3)pLysS
T2 sequence (Q9BVM4 1-153): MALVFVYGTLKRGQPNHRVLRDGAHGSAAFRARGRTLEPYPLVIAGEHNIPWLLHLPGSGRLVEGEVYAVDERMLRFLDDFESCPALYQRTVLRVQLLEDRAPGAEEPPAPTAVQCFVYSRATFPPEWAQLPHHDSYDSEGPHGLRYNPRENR
The test is described as follows: SEC/MS interaction analysis, FLJ38531-derived protein (hypothetical protein BC004360). Format: binding. To be noted: spin column method; doses of both compound and protein varied.
Source text: as §1, §2, §3, §4, §5

[2] abbreviates: SEC spin column filtrate, spectral intensity increased with doses of compound and protein.

“Also recorded” adds a separate entry of the source. Read-outs that look alike come from different tables or passages of the source.

Regarding `CCN(CC)CCCC(C)Nc1c2ccc(Cl)cc2nc2ccc(OC)cc12` (stereo not drawn) [quinacrine], the “FLJ No of the derived protein with which the compound was judged to exhibit a concentration-dependent interaction” value (“FLJ No of the derived protein” below) in test [1] (setting [2]) is listed as “FLJ37909; also recorded: FLJ41991”. Besides, the “spectrum intensity of the compound in the SEC spin column filtrate” value amounted to 36421 on FLJ41991-derived protein (compound 12.5 μM, protein 0 μM); 77607 at FLJ41991-derived protein (compound 12.5 μM, protein 5 μM); 225680 at FLJ41991-derived protein (compound 12.5 μM, protein 10 μM); 439131 at FLJ41991-derived protein (compound 12.5 μM, protein 25 μM); 40978 on FLJ41991-derived protein (compound 25 μM, protein 0 μM); 125609 at FLJ41991-derived protein (compound 25 μM, protein 5 μM). Also, the “spectrum intensity of the compound in the SEC spin column filtrate” value is listed as 481486 on FLJ41991-derived protein (compound 25 μM, protein 10 μM); 457713 at FLJ41991-derived protein (compound 25 μM, protein 25 μM); 123977 at FLJ41991-derived protein (compound 62.5 μM, protein 0 μM); 598920 at FLJ41991-derived protein (compound 62.5 μM, protein 5 μM); 1080431 at FLJ41991-derived protein (compound 62.5 μM, protein 10 μM); 1854355 at FLJ41991-derived protein (compound 62.5 μM, protein 25 μM). Further, the “interaction judged from spectrum intensity of the compound in the SEC spin column filtrate (protein fraction eluted from SEC)” value on FLJ41991-derived protein (spin column method, doses of both compound and protein varied) is “concentration-dependent interaction”.

Consider `CCC(C)C1O[C@]2(C=C[C@@H]1C)C[C@@H]1CC(C/C=C(\C)[C@@H](OC3C[C@H](OC)[C@@H](OC4C[C@H](OC)[C@@H](O)[C@H](C)O4)[C@H](C)O3)[C@@H](C)/C=C/C=C3\COC4[C@H](O)C(C)=CC(C(=O)O1)[C@]34O)O2` (stereo partly drawn) [avermectin B1A], for which, in test [1] (setting [2]), the “FLJ No of the derived protein” value was “FLJ39553”.

In the case of `C[C@@H]1CC[C@@]2(NC1)O[C@H]1C[C@H]3[C@@H]4CC=C5C[C@@H](O)CC[C@]5(C)[C@H]4CC[C@]3(C)[C@H]1[C@@H]2C` [solasodine], the “FLJ No of the derived protein” value in test [1] (setting [2]) is “FLJ35353”.

On to `CN1CCCCC1CCN1c2ccccc2Sc2ccc([S+](C)[O-])cc21` (stereo not drawn) [mesoridazine], for which the “FLJ No of the derived protein” value in test [1] (setting [2]) is “FLJ11211”.

For the compound `CCN(CC)CCOc1ccc(C(=C(Cl)c2ccccc2)c2ccccc2)cc1` [clomiphene], the “FLJ No of the derived protein” value in test [1] (setting [2]) is given as “FLJ37909”.

On to `CCn1cc(C(=O)O)c(=O)c2ccc(C)nc21` [nalidixic acid], for which the “interaction judged from spectrum intensity of the compound in the SEC spin column filtrate (protein fraction eluted from SEC)” value on FLJ38531-derived protein is listed as “concentration-dependent interaction”. In test [1] (setting [2]), the “FLJ No of the derived protein” value was “FLJ38531”.

As to `CCOC(=O)Oc1c(OC)cc(C(=O)O[C@@H]2C[C@@H]3CN4CCc5c([nH]c6cc(OC)ccc56)[C@H]4C[C@@H]3[C@H](C(=O)OC)[C@H]2OC)cc1OC` [syrosingopine], the “FLJ No of the derived protein” value in test [1] (setting [2]) is “FLJ35353”.

On to `CN1CCN(CC/C=C2/c3ccccc3Sc3ccc(S(=O)(=O)N(C)C)cc32)CC1` [thiothixene (cis), thiothixene], for which the “FLJ No of the derived protein” value in test [1] (setting [2]) is “FLJ37909”; in test [1] (SEC spin column filtrate, spectral intensity increased with doses of compound and protein, listed as Thiothixene (cis)), “FLJ35353”.

As for spiramycin, the “FLJ No of the derived protein” value in test [1] (setting [2]) was “FLJ21841”.

On to `CCn1cc(C(=O)O)c(=O)c2cc3c(cc21)OCO3` [oxolinic acid], for which the “FLJ No of the derived protein” value in test [1] (setting [2]) is given as “FLJ37909”.

With `CSc1ccc2c(c1)N(CCC1CCCCN1C)c1ccccc1S2` (stereo not drawn) [thioridazine], the “FLJ No of the derived protein” value in test [1] (setting [2]) is recorded as “FLJ37909”.

On to `CC(=O)[C@H]1CC[C@H]2[C@@H]3C=CC4=CC(=O)CC[C@@]4(C)[C@@H]3CC[C@]12C` [dydrogesterone], for which the “FLJ No of the derived protein” value in test [1] (setting [2]) is “FLJ35353”.

With `CC(=O)c1ccc2c(c1)N(CCCN(C)C)c1ccccc1S2` [acetopromazine], the “FLJ No of the derived protein” value in test [1] (setting [2]) is “FLJ36526”.

For `COc1cc(NS(=O)(=O)c2ccc(N)cc2)nc(OC)n1` [sulfadimethoxine], in test [1] (setting [2]), the “FLJ No of the derived protein” value was “FLJ39553”.

As for `CCCSc1ccc2nc(NC(=O)OC)[nH]c2c1` [albendazole], the “FLJ No of the derived protein” value in test [1] is reported as “FLJ35353”.

With `CC1CCc2cc(F)cc3c(=O)c(C(=O)O)cn1c23` (stereo not drawn) [flumequine], the “FLJ No of the derived protein” value in test [1] (setting [2]) is listed as “FLJ38531”.

Turning to `CCCCC[C@](C)(O)/C=C/[C@@H]1[C@@H](C/C=C\CCCC(=O)O)[C@@H](O)C[C@H]1O` [carboprost], the “FLJ No of the derived protein” value in test [1] (setting [2]) was “FLJ39553”.

As for `Fc1ccc(C(c2ccc(F)cc2)N2CCN(C/C=C/c3ccccc3)CC2)cc1` [flunarizine], the “FLJ No of the derived protein” value in test [1] (setting [2]) is reported as “FLJ37909”.

`COc1ccc2c3c([nH]c2c1)C(C)=NCC3` [harmaline]: the “FLJ No of the derived protein” value in test [1] (setting [2]) is reported as “FLJ39553”.

With `CC(C)[C@@]1(NC(=O)[C@@H]2C[C@@H]3c4cccc5[nH]cc(c45)C[C@H]3N(C)C2)O[C@@]2(O)[C@@H]3CCCN3C(=O)[C@H](Cc3ccccc3)N2C1=O` [dihydroergocristine], in test [1] (setting [2]), the “FLJ No of the derived protein” value is “FLJ37909”.

Take `NCC[C@H](O)C(=O)N[C@@H]1C[C@H](N)[C@@H](O[C@H]2O[C@H](CN)[C@@H](O)[C@H](O)[C@H]2O)[C@H](O)[C@H]1O[C@H]1O[C@H](CO)[C@@H](O)[C@H](N)[C@H]1O` [amikacin]: the “FLJ No of the derived protein” value in test [1] (setting [2]) was “FLJ37909”.

Consider `CC1CCCC(C)N1` (stereo not drawn) [nanofin (cis), nanofin], for which, in test [1] (setting [2]), the “FLJ No of the derived protein” value is “FLJ42665”.

For the compound `CN1C[C@H](CNC(=O)OCc2ccccc2)C[C@@H]2c3cccc4c3c(cn4C)C[C@H]21` [metergoline], the “FLJ No of the derived protein” value in test [1] (setting [2]) was “FLJ37909”.

Take `C[C@@H]1C[C@H]2[C@@H]3C[C@H](F)C4=CC(=O)C=C[C@]4(C)[C@H]3[C@@H](O)C[C@]2(C)[C@@]1(O)C(=O)CO` [paramethasone]: in test [1] (setting [2]), the “FLJ No of the derived protein” value was “FLJ39553”.

The values are drawn from patent US20090143285A1, “TARGET PROTEIN AND TARGET GENE FOR DRUG DISCOVERY AND SCREENING METHOD” (REVERSE PROTEOMICS RESEARCH INSTITUTE CO., LTD., priority 2005, published 2009).
